# Laboratory results published in PubChem BioAssay AID2060907 (Molecular Pharmacology Branch, DTP, NCI, 2025).
# System: 388556-164-R-J1-PDC complex spheroid viability
# Assay: Anticancer human tumor 388556-164-R-J1-PDC patient-derived colon adenocarcinoma cell line growth inhibition [RAS]
# Settings: for IC50: curve of first compound; for viability, T/C: stronger effect = lower value
# How it was run: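 Tumour cells grown as complex spheroids with HUVEC endothelial cells and mesenchymal stem cells, treated with RAS pathway inhibitor combinations. Each agent spans half-log steps from near clinical Cmax, or 10 microM where Cmax is unknown.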
# [1] = second compound 0.000949 µM, first compound 0.0316 µM
# [2] = second compound 0.000949 µM, first compound 0.1 µM
# [3] = second compound 0.000949 µM, first compound 0.316 µM
# [4] = second compound 0.000949 µM, first compound 1 µM
# [5] = second compound 0.000949 µM, first compound 3.16 µM
# [6] = second compound 0.000949 µM, first compound 10 µM
# [7] = second compound 0.003 µM, first compound 0.0316 µM
# [8] = second compound 0.003 µM, first compound 0.1 µM
# [9] = second compound 0.003 µM, first compound 0.316 µM
# [10] = second compound 0.003 µM, first compound 1 µM
# [11] = second compound 0.003 µM, first compound 3.16 µM
# [12] = second compound 0.003 µM, first compound 10 µM
# [13] = second compound 0.00949 µM, first compound 0.0316 µM
# [14] = second compound 0.00949 µM, first compound 0.1 µM
# [15] = second compound 0.00949 µM, first compound 0.316 µM
# [16] = second compound 0.00949 µM, first compound 1 µM
# [17] = second compound 0.00949 µM, first compound 3.16 µM
# [18] = second compound 0.00949 µM, first compound 10 µM
# [19] = second compound 0.03 µM, first compound 0.0316 µM
# [20] = second compound 0.03 µM, first compound 0.1 µM
# [21] = second compound 0.03 µM, first compound 0.316 µM
# [22] = second compound 0.03 µM, first compound 1 µM
# [23] = second compound 0.03 µM, first compound 3.16 µM
# [24] = second compound 0.03 µM, first compound 10 µM
# [25] = second compound 0.0949 µM, first compound 0.0316 µM
# [26] = second compound 0.0949 µM, first compound 0.1 µM
# [27] = second compound 0.0949 µM, first compound 0.316 µM
# [28] = second compound 0.0949 µM, first compound 1 µM
# [29] = second compound 0.0949 µM, first compound 3.16 µM
# [30] = second compound 0.0949 µM, first compound 10 µM
# [31] = second compound 0.3 µM, first compound 0.0316 µM
# [32] = second compound 0.3 µM, first compound 0.1 µM
# [33] = second compound 0.3 µM, first compound 0.316 µM
# [34] = second compound 0.3 µM, first compound 1 µM
# [35] = second compound 0.3 µM, first compound 3.16 µM
# [36] = second compound 0.3 µM, first compound 10 µM
# 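Further: spheroids exposed to compound for 7 days before readout.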
# 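Wherever viability, T/C is given: 100% = DMSO vehicle control luminescence.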
smiles,measurement,setting,value
CC(=O)OC12COC1CC(O)C1(C)C(=O)C(O)C3=C(C)C(OC(=O)C(O)C(NC(=O)OC(C)(C)C)c4ccccc4)CC(O)(C(OC(=O)c4ccccc4)C21)C3(C)C (stereo unspecified) + CCn1c(-c2cccnc2C(C)OC)c2c3cc(ccc31)N1CCOC(CC(NC(=O)C(C(C)C)N(C)C(=O)C3(F)CCN(C(=O)C#CC(C)(C)N(C)C)CC3)C(=O)N3CCCC(N3)C(=O)OCC(C)(C)C2)C1,IC50,second compound 0.000949 µM,> 10 µM
same,IC50,second compound 0.003 µM,> 10 µM
same,IC50,second compound 0.00949 µM,> 10 µM
same,IC50,second compound 0.03 µM,> 10 µM
same,IC50,second compound 0.0949 µM,> 10 µM
same,IC50,second compound 0.3 µM,> 10 µM
same,"viability, T/C",[1],86%
same,"viability, T/C",[2],83.4%
same,"viability, T/C",[3],70.5%
same,"viability, T/C",[4],73.7%
same,"viability, T/C",[5],80.7%
same,"viability, T/C",[6],74.7%
same,"viability, T/C",[7],92.2%
same,"viability, T/C",[8],78.8%
same,"viability, T/C",[9],79%
same,"viability, T/C",[10],76%
same,"viability, T/C",[11],75.1%
same,"viability, T/C",[12],74.4%
same,"viability, T/C",[13],86%
same,"viability, T/C",[14],83.4%
same,"viability, T/C",[15],76.6%
same,"viability, T/C",[16],75%
same,"viability, T/C",[17],79.4%
same,"viability, T/C",[18],71%
same,"viability, T/C",[19],95.5%
same,"viability, T/C",[20],81.7%
same,"viability, T/C",[21],70.7%
same,"viability, T/C",[22],71.7%
same,"viability, T/C",[23],79.1%
same,"viability, T/C",[24],74.2%
same,"viability, T/C",[25],80.7%
same,"viability, T/C",[26],79.2%
same,"viability, T/C",[27],81.8%
same,"viability, T/C",[28],76.3%
same,"viability, T/C",[29],78%
same,"viability, T/C",[30],69.6%
same,"viability, T/C",[31],79.7%
same,"viability, T/C",[32],70.3%
same,"viability, T/C",[33],71.3%
same,"viability, T/C",[34],73.8%
same,"viability, T/C",[35],71.4%
same,"viability, T/C",[36],69%
CC(C)NCC(C(=O)N1CCN(c2ncnc3c2C(C)CC3O)CC1)c1ccc(Cl)cc1 (stereo unspecified) + C=CC(=O)N1CCN(c2nc(OCC3CCCN3C)nc3c(F)c(-c4nc(N)cc(C)c4C(F)(F)F)c(Cl)cc23)C(C)C1,IC50,second compound 0.00316 µM,> 10 µM
same,IC50,second compound 0.01 µM,> 10 µM
same,IC50,second compound 0.0316 µM,> 10 µM
same,IC50,second compound 0.1 µM,> 10 µM
same,IC50,second compound 0.316 µM,> 10 µM
same,IC50,second compound 1 µM,> 10 µM
same,"viability, T/C","second compound 0.00316 µM, first compound 0.0316 µM",117%
same,"viability, T/C","second compound 0.00316 µM, first compound 0.1 µM",116%
same,"viability, T/C","second compound 0.00316 µM, first compound 0.316 µM",107%
same,"viability, T/C","second compound 0.00316 µM, first compound 1 µM",95.5%
same,"viability, T/C","second compound 0.00316 µM, first compound 3.16 µM",102%
same,"viability, T/C","second compound 0.00316 µM, first compound 10 µM",102%
same,"viability, T/C","second compound 0.01 µM, first compound 0.0316 µM",106%
same,"viability, T/C","second compound 0.01 µM, first compound 0.1 µM",110%
same,"viability, T/C","second compound 0.01 µM, first compound 0.316 µM",103%
same,"viability, T/C","second compound 0.01 µM, first compound 1 µM",108%
same,"viability, T/C","second compound 0.01 µM, first compound 3.16 µM",90.9%
same,"viability, T/C","second compound 0.01 µM, first compound 10 µM",105%
same,"viability, T/C","second compound 0.0316 µM, first compound 0.0316 µM",97.2%
same,"viability, T/C","second compound 0.0316 µM, first compound 0.1 µM",113%
same,"viability, T/C","second compound 0.0316 µM, first compound 0.316 µM",110%
same,"viability, T/C","second compound 0.0316 µM, first compound 1 µM",103%
same,"viability, T/C","second compound 0.0316 µM, first compound 3.16 µM",105%
same,"viability, T/C","second compound 0.0316 µM, first compound 10 µM",94.2%
same,"viability, T/C","second compound 0.1 µM, first compound 0.0316 µM",108%
same,"viability, T/C","second compound 0.1 µM, first compound 0.1 µM",103%
same,"viability, T/C","second compound 0.1 µM, first compound 0.316 µM",99.5%
same,"viability, T/C","second compound 0.1 µM, first compound 1 µM",106%
same,"viability, T/C","second compound 0.1 µM, first compound 3.16 µM",95.9%
same,"viability, T/C","second compound 0.1 µM, first compound 10 µM",91%
same,"viability, T/C","second compound 0.316 µM, first compound 0.0316 µM",106%
same,"viability, T/C","second compound 0.316 µM, first compound 0.1 µM",112%
same,"viability, T/C","second compound 0.316 µM, first compound 0.316 µM",105%
same,"viability, T/C","second compound 0.316 µM, first compound 1 µM",99.3%
same,"viability, T/C","second compound 0.316 µM, first compound 3.16 µM",111%
same,"viability, T/C","second compound 0.316 µM, first compound 10 µM",99.1%
same,"viability, T/C","second compound 1 µM, first compound 0.0316 µM",106%
same,"viability, T/C","second compound 1 µM, first compound 0.1 µM",104%
same,"viability, T/C","second compound 1 µM, first compound 0.316 µM",118%
same,"viability, T/C","second compound 1 µM, first compound 1 µM",99.8%
same,"viability, T/C","second compound 1 µM, first compound 3.16 µM",100%
same,"viability, T/C","second compound 1 µM, first compound 10 µM",99.4%
C[C@@H](NC(=O)c1ncnc(N)c1Cl)c1ncc(C(=O)Nc2cc(C(F)(F)F)c(Cl)cn2)s1 + CCn1c(-c2cc(N3CCN(C)CC3)cnc2C(C)OC)c2c3cc(ccc31)-c1csc(n1)CC(NC(=O)C1CC1C)C(=O)N1CCCC(N1)C(=O)OCC(C)(C)C2,IC50,second compound 0.000949 µM,> 10 µM
same,IC50,second compound 0.003 µM,> 10 µM
same,IC50,second compound 0.00949 µM,> 10 µM
same,IC50,second compound 0.03 µM,> 10 µM
same,IC50,second compound 0.0949 µM,> 10 µM
same,IC50,second compound 0.3 µM,< 0.0316 µM
same,"viability, T/C",[1],96.3%
same,"viability, T/C",[2],127%
same,"viability, T/C",[3],105%
same,"viability, T/C",[4],117%
same,"viability, T/C",[5],129%
same,"viability, T/C",[6],109%
same,"viability, T/C",[7],114%
same,"viability, T/C",[8],100%
same,"viability, T/C",[9],86.5%
same,"viability, T/C",[10],101%
same,"viability, T/C",[11],111%
same,"viability, T/C",[12],105%
same,"viability, T/C",[13],85%
same,"viability, T/C",[14],87.1%
same,"viability, T/C",[15],89.5%
same,"viability, T/C",[16],82.2%
same,"viability, T/C",[17],102%
same,"viability, T/C",[18],104%
same,"viability, T/C",[19],75.7%
same,"viability, T/C",[20],67.9%
same,"viability, T/C",[21],91%
same,"viability, T/C",[22],75.1%
same,"viability, T/C",[23],78.8%
same,"viability, T/C",[24],72.4%
same,"viability, T/C",[25],50.2%
same,"viability, T/C",[26],54.3%
same,"viability, T/C",[27],54.3%
same,"viability, T/C",[28],63.9%
same,"viability, T/C",[29],71%
same,"viability, T/C",[30],61.4%
same,"viability, T/C",[31],34.3%
same,"viability, T/C",[32],33.2%
same,"viability, T/C",[33],38.6%
same,"viability, T/C",[34],41.6%
same,"viability, T/C",[35],38.5%
same,"viability, T/C",[36],44.1%
